Holding throughout (test): chnB monooxygenase activity assay, NADPH oxidation at 340 nm, purified over-expressed enzyme
What all share (type): biochemical

Experiment [1] deals with Acidovorax sp. CHX chnB monooxygenase. Conditions: 1.25 mM substrate, pH 7.5; ND = No Activity Detected. The source says: (§1) Following amplification, the chnB gene fragments were cloned into pTrcHis-TOPO TA vectors with either an N-terminal tail or C-terminal tail, as provided by the vector sequence (N-terminal tail for Brevibacterium sp. HCU, Rhodococcus sp. phi1, Rhodococcus sp. phi2, and Arthrobacter sp. BP2 monooxygenases; C-terminal tail for Acinetobacter sp. SE19 and Acidovorax sp. CHX monooxygenases). These vectors were transformed into E. coli, with transformants grown in Luria-Bertani broth supplemented with ampicillin (100 ug/ml) and riboflavin (0.1 ug/ml) at 30° C. until the absorbance at 600 nm (A600) reached 0.5. When the A600 was reached, the temperature was shifted to 16° C.
(§2) The encoded monooxygenase sequences were expressed upon addition of IPTG to the culture media, 30 min after the temperature shift to 16° C. The cultures were grown further ovemight (14 hrs) and harvested by centrifugation in a cold centrifuge. The cells were treated with lysozyme (100 mg/ml) for 30 min on ice and sonicated. Following sonication, cell extracts were centrifuged and the supernatant was equilibrated with Ni-NTA resin (Qiagen, Valencia, Calif.) for 1 hr at 4° C. Protein bound resin was washed successively with increasing concentrations of imidazole buffer until the protein of interest was released from the resin. The purified protein was concentrated and the buffer exchanged to remove the imidazole. The protein concentration was adjusted to 1 ug/ml.
(§3) Compounds were selected on the basis of previous observations by van der Werf (J. Biochem. 347:693-701 (2000)) and Miyamoto et al. (Biochimica et Biophysica Acta 1251: 115-124 (1995)) and by searches for the ketone substructure.
(§4) All compounds were obtained from Sigma-Aldrich with only two exceptions. Levoglucosenone was obtained from Toronto Research Chemicals, Inc. and dimethyl-2-piperidone was prepared according to U.S. Pat. No. 6,077,955. For enzyme assays all compounds were dissolved to a concentration of 0.1 M in methanol, with the exceptions of norcamphor (dissolved in ethyl acetate), cyclododecanone, cycltridecanone and cyclopentadecanone (dissolved in propanol), and levoglucosenone (dissolved with acetone).
(§5) The monooxygenase activity of each over-expressed enzyme was assayed spectrophotometrically at 340 nm by monitoring the oxidation of NADPH. Assays were performed in individual quartz cuvettes, with a pathlength of 1 cm. […] An Ultrospec 4000 (Pharmacia Biotech, Cambridge, England) was used to read the absorbance of the samples over a two to ten minute time period and the SWIFT (Pharmacia Biotech) program was used to calculate the slope of the reduction in absorbance over time. For the Brevibactedum sp. […] Monooxygenase activity of each over-expressed enzyme is shown in Table 5, with respect to each ketone substrate. The specific activity values listed are given in umol/min/mg. The notation “ND” refers to “No Activity Detected”.

Experiment [2] concerns the target T1, Acinetobacter sp. SE19 chnB monooxygenase (Acinetobacter sp., UniProt Q9F7E4).
T1 construct: isolated full length BVMO genes from Brevibacterium sp; HCU, Acinetobacter SE19; C-terminal tail provided by the pTrcHis-TOPO vector (C); made in house; host or cells: E. coli
Conditions: 1.25 mM substrate, pH 7.5; ND = No Activity Detected.
Description: as §1, §2, §3, §4, §5

In experiment [3] the test system is Arthrobacter sp. BP2 chnB monooxygenase. Conditions: 1.25 mM substrate, pH 7.5; ND = No Activity Detected.
Description: as §1, §2, §3, §4, §5

Experiment [4] deals with Brevibacterium sp. HCU chnB1 monooxygenase. Conditions: 1.25 mM substrate, pH 7.5; ND = No Activity Detected.
Description: as §1, §2, §3, §4, §5

Experiment [5] has as its system Brevibacterium sp. HCU chnB2 monooxygenase. Particulars: 1.25 mM substrate, pH 7.5; rates multiplied by a factor of 3.25 to adjust for decrease in activity due to storage; ND = No Activity Detected.
Description: as §1, §2, §3, §4, §5

Experiment [6] concerns Rhodococcus sp. phi1 chnB monooxygenase. Particulars: 1.25 mM substrate, pH 7.5; ND = No Activity Detected.
Description: as §1, §2, §3, §4, §5

The subject of experiment [7] is Rhodococcus sp. phi2 chnB monooxygenase. Particulars: 1.25 mM substrate, pH 7.5; ND = No Activity Detected.
Description: as §1, §2, §3, §4, §5

Turning to `O=C1CCCCC1=O` [1,2-cyclohexanedione], the “Specific Activity of Monooxygenase Enzymes Against Various Ketone Substrates, sp. CHX chnB” value (from here on “Specific Activity … sp. CHX chnB”) in experiment [1] was 0.096 µmol/min/mg. Also, the “Specific Activity of Monooxygenase Enzymes Against Various Ketone Substrates, sp. SE19 chnB” value (“Specific Activity … sp. SE19 chnB” below) in experiment [2] amounted to 0.077 µmol/min/mg. Besides, in experiment [3], the “Specific Activity of Monooxygenase Enzymes Against Various Ketone Substrates, sp. BP2 chnB” value (shortened to “Specific Activity … sp. BP2 chnB”) was 0.237 µmol/min/mg. Also, in experiment [4], the “Specific Activity of Monooxygenase Enzymes Against Various Ketone Substrates, sp. HCU chnB1” value (“Specific Activity … sp. HCU chnB1” below) is 0.787 µmol/min/mg. In addition, the “Specific Activity of Monooxygenase Enzymes Against Various Ketone Substrates, sp. HCU chnB2” value (from here on “Specific Activity … sp. HCU chnB2”) in experiment [5] is 0.416 µmol/min/mg. Besides, the “Specific Activity of Monooxygenase Enzymes Against Various Ketone Substrates, sp. phi1 chnB” value (shortened to “Specific Activity … sp. phi1 chnB”) in experiment [6] is 0.083 µmol/min/mg.
Consider `O=C1CCCC(=O)C1` [1,3-cyclohexanedione], for which the “Specific Activity … sp. CHX chnB” value in experiment [1] worked out at 0.032 µmol/min/mg. Besides, in experiment [2], the “Specific Activity … sp. SE19 chnB” value came to 0.237 µmol/min/mg. For the same compound, in experiment [3], the “Specific Activity … sp. BP2 chnB” value came to 0.397 µmol/min/mg. In addition, the “Specific Activity … sp. HCU chnB1” value in experiment [4] is 0.237 µmol/min/mg. In addition, the “Specific Activity … sp. HCU chnB2” value in experiment [5] was 0.978 µmol/min/mg. The “Specific Activity of Monooxygenase Enzymes Against Various Ketone Substrates, sp. phi2 chnB” value (from here on “Specific Activity … sp. phi2 chnB”) in experiment [7] came out at 0.141 µmol/min/mg.
As for `CCCCCCCCCCCC(C)=O` [2-tridecanone], the “Specific Activity … sp. CHX chnB” value in experiment [1] is 0.096 µmol/min/mg. Also, the “Specific Activity … sp. HCU chnB2” value in experiment [5] was found to be 0.187 µmol/min/mg. In experiment [6], the “Specific Activity … sp. phi1 chnB” value is 0.160 µmol/min/mg. Moreover, the “Specific Activity … sp. phi2 chnB” value in experiment [7] was determined as 1.690 µmol/min/mg.
For `O=C1CCC1` [Cyclobutanone], the “Specific Activity … sp. SE19 chnB” value in experiment [2] was 0.109 µmol/min/mg. Also, the “Specific Activity … sp. BP2 chnB” value in experiment [3] is 0.128 µmol/min/mg. The “Specific Activity … sp. HCU chnB2” value in experiment [5] came to 0.374 µmol/min/mg. In experiment [6], the “Specific Activity … sp. phi1 chnB” value is 0.102 µmol/min/mg. Also, in experiment [7], the “Specific Activity … sp. phi2 chnB” value came out at 0.154 µmol/min/mg.
In the case of `O=C1CCCCCCCCC1` [Cyclodecanone], the “Specific Activity … sp. CHX chnB” value in experiment [1] turned out to be 0.160 µmol/min/mg. Moreover, the “Specific Activity … sp. SE19 chnB” value in experiment [2] is 0.320 µmol/min/mg. The “Specific Activity … sp. BP2 chnB” value in experiment [3] was 0.166 µmol/min/mg. Moreover, in experiment [6], the “Specific Activity … sp. phi1 chnB” value amounted to 0.077 µmol/min/mg. Moreover, the “Specific Activity … sp. phi2 chnB” value in experiment [7] was found to be 0.205 µmol/min/mg.
Consider `O=C1CCCCCCCCCCC1` [Cyclododecanone], for which the “Specific Activity … sp. CHX chnB” value in experiment [1] came out at 0.051 µmol/min/mg. Moreover, in experiment [2], the “Specific Activity … sp. SE19 chnB” value turned out to be 0.122 µmol/min/mg. In addition, in experiment [3], the “Specific Activity … sp. BP2 chnB” value came out at 0.198 µmol/min/mg. Besides, the “Specific Activity … sp. HCU chnB2” value in experiment [5] was 0.229 µmol/min/mg. For the same compound, the “Specific Activity … sp. phi2 chnB” value in experiment [7] is 0.122 µmol/min/mg.
For `O=C1CCCCCCC1` [Cyclooctanone], the “Specific Activity … sp. CHX chnB” value in experiment [1] came out at 0.410 µmol/min/mg. In experiment [2], the “Specific Activity … sp. SE19 chnB” value came to 1.984 µmol/min/mg. Also, the “Specific Activity … sp. BP2 chnB” value in experiment [3] worked out at 0.646 µmol/min/mg. Further, in experiment [6], the “Specific Activity … sp. phi1 chnB” value worked out at 0.627 µmol/min/mg. Besides, the “Specific Activity … sp. phi2 chnB” value in experiment [7] came out at 0.141 µmol/min/mg.
On to `O=C1CCCCCCCCCCCCCC1` [Cyclopenta-decanone], for which the “Specific Activity … sp. SE19 chnB” value in experiment [2] was determined as 0.109 µmol/min/mg. For the same compound, the “Specific Activity … sp. BP2 chnB” value in experiment [3] was 0.122 µmol/min/mg. Also, the “Specific Activity … sp. phi1 chnB” value in experiment [6] was 0.122 µmol/min/mg.
In the case of `O=C1CCCC1` [Cyclopentanone], the “Specific Activity … sp. CHX chnB” value in experiment [1] came out at 0.621 µmol/min/mg. Besides, in experiment [2], the “Specific Activity … sp. SE19 chnB” value is 3.034 µmol/min/mg. Further, in experiment [3], the “Specific Activity … sp. BP2 chnB” value was determined as 1.491 µmol/min/mg. For the same compound, the “Specific Activity … sp. HCU chnB2” value in experiment [5] was determined as 1.331 µmol/min/mg. Further, the “Specific Activity … sp. phi1 chnB” value in experiment [6] worked out at 1.370 µmol/min/mg. For the same compound, the “Specific Activity … sp. phi2 chnB” value in experiment [7] turned out to be 2.451 µmol/min/mg.
For the compound `O=C1CCCCCCCCCCCC1` [Cyclotridecanone], the “Specific Activity … sp. SE19 chnB” value in experiment [2] stood at 0.166 µmol/min/mg. In experiment [3], the “Specific Activity … sp. BP2 chnB” value amounted to 0.147 µmol/min/mg. Also, in experiment [7], the “Specific Activity … sp. phi2 chnB” value was determined as 0.109 µmol/min/mg.
Consider `O=C1CCCCCCCCCC1` [Cycloundecanone], for which, in experiment [1], the “Specific Activity … sp. CHX chnB” value was determined as 0.058 µmol/min/mg. Moreover, the “Specific Activity … sp. SE19 chnB” value in experiment [2] amounted to 0.064 µmol/min/mg. The “Specific Activity … sp. BP2 chnB” value in experiment [3] worked out at 0.064 µmol/min/mg. In experiment [5], the “Specific Activity … sp. HCU chnB2” value was 0.125 µmol/min/mg. Also, the “Specific Activity … sp. phi2 chnB” value in experiment [7] is 0.051 µmol/min/mg.
Turning to `O=C1C=C[C@H]2CO[C@@H]1O2` [Levoglucosenone], the “Specific Activity … sp. CHX chnB” value in experiment [1] was 0.147 µmol/min/mg. The “Specific Activity … sp. SE19 chnB” value in experiment [2] was 1.126 µmol/min/mg. Moreover, in experiment [3], the “Specific Activity … sp. BP2 chnB” value was 0.525 µmol/min/mg. The “Specific Activity … sp. phi1 chnB” value in experiment [6] was found to be 0.461 µmol/min/mg. Also, in experiment [7], the “Specific Activity … sp. phi2 chnB” value amounted to 0.506 µmol/min/mg.
For the compound `OB(O)c1ccccc1` [Phenylboronic acid], the “Specific Activity … sp. SE19 chnB” value in experiment [2] came out at 0.102 µmol/min/mg. Also, in experiment [3], the “Specific Activity … sp. BP2 chnB” value was 0.192 µmol/min/mg. The “Specific Activity … sp. HCU chnB1” value in experiment [4] worked out at 1.606 µmol/min/mg. In addition, the “Specific Activity … sp. phi2 chnB” value in experiment [7] was determined as 0.109 µmol/min/mg.
Regarding `CCCCCCC(=O)CCCCCC` [dihexyl ketone], in experiment [5], the “Specific Activity … sp. HCU chnB2” value was 0.270 µmol/min/mg. Further, the “Specific Activity … sp. phi1 chnB” value in experiment [6] was found to be 0.160 µmol/min/mg.
For the compound `C[S+](C)[O-]` [dimethyl sulfoxide], in experiment [1], the “Specific Activity … sp. CHX chnB” value came to 0.358 µmol/min/mg. In addition, the “Specific Activity … sp. SE19 chnB” value in experiment [2] came to 0.819 µmol/min/mg. The “Specific Activity … sp. BP2 chnB” value in experiment [3] stood at 0.422 µmol/min/mg. Also, the “Specific Activity … sp. HCU chnB1” value in experiment [4] is 0.230 µmol/min/mg. Besides, in experiment [6], the “Specific Activity … sp. phi1 chnB” value worked out at 0.518 µmol/min/mg. The “Specific Activity … sp. phi2 chnB” value in experiment [7] stood at 0.544 µmol/min/mg.

(Values after patent US20040267001A1, “Genes encoding baeyer-villiger monooxygenases” (priority 2001, published 2004).)
